Reference: the NIST ThermoML archive (doi:10.1021/je040002p)
Numbers after ± are expanded uncertainties.

Key:
[1] = Liquid; for mass density: 101.33 kPa, Pycnometric method
[2] = refractive index (Na D-line) (dimensionless); conditions: 101.33 kPa, Liquid, Standard Abbe refractometry

Row | mass density ([1]; 293.15 K) | Normal boiling temperature [1] | refractive index ([2]; 293.15 K) | mass density ([1]; 303.15 K) | refractive index ([2]; 303.15 K) | SMILES
1 | 811.2 ± 0.8 kg/m3 | 127.54 ± 0.13 °C | 1.4008 ± 0.0007 |  |  | CCCCC(C)=O [2-hexanone]
2 | 717.6 ± 0.7 kg/m3 | 150.82 ± 0.14 °C | 1.4055 ± 0.0007 |  |  | CCCCCCCCC [nonane]
3 |  | 160.74 ± 0.14 °C |  | 941.6 ± 0.9 kg/m3 | 1.4621 ± 0.0007 | OC1CCCCC1 [cyclohexanol]
